Experiment [1] concerns the target Neuronal acetylcholine receptor subunit alpha-4 (Homo sapiens, UniProt P43681).
The target of experiment [2] is Muscarinic acetylcholine receptor M3 (Homo sapiens, UniProt P20309).
Experiment [3] deals with T1, Gastrin/cholecystokinin type B receptor (Homo sapiens, UniProt P32239).
T1 sequence (P32239 whole entry): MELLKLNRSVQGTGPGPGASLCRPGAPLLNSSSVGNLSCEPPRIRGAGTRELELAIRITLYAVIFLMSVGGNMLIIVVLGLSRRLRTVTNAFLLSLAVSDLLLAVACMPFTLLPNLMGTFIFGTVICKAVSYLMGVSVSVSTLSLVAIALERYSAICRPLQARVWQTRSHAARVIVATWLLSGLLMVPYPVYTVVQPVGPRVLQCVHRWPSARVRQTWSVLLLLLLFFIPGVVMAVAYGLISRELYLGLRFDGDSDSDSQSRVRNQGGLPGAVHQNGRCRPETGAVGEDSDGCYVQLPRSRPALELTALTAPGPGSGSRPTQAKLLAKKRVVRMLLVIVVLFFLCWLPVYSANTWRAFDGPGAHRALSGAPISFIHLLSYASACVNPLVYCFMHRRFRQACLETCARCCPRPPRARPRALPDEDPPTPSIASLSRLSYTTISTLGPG

The target in experiment [4] is T2, 5-hydroxytryptamine receptor 3A (Homo sapiens, UniProt P46098).
T2 sequence (P46098 whole entry): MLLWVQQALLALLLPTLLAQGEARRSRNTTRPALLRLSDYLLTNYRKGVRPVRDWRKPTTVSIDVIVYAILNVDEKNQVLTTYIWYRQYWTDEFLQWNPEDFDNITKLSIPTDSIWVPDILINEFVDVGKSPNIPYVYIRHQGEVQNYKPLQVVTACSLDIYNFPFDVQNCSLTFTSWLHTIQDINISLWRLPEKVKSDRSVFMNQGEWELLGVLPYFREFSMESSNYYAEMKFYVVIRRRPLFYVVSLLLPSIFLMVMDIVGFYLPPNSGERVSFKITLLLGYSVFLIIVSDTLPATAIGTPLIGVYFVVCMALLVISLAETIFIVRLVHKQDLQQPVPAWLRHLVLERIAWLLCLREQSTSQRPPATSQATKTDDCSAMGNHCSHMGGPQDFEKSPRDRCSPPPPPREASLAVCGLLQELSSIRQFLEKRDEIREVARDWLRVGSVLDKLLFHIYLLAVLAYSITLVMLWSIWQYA
The class given is functional.

In experiment [5] the target is T3, Amine oxidase [flavin-containing] A (Homo sapiens, UniProt P21397).
T3 sequence (P21397 whole entry): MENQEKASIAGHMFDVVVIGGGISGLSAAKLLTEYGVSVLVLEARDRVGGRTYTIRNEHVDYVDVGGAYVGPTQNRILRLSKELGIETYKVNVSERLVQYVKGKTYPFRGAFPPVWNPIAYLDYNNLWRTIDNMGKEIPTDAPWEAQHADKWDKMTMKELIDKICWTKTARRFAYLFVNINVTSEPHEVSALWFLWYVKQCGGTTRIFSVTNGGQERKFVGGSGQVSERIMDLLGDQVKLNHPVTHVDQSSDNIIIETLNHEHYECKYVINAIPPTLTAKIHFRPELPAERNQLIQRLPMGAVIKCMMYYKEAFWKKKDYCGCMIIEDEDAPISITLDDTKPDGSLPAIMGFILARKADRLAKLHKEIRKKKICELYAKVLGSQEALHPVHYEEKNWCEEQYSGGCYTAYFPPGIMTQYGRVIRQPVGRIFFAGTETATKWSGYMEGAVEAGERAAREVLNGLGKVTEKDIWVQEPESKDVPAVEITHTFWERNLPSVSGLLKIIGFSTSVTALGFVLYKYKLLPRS
The class given is functional.

The target in a further experiment is Mu-type opioid receptor (Homo sapiens, UniProt P35372). The experiment can be described thus: biochemical. The class given is functional.
Mu-type opioid receptor, sequence (P35372 whole entry): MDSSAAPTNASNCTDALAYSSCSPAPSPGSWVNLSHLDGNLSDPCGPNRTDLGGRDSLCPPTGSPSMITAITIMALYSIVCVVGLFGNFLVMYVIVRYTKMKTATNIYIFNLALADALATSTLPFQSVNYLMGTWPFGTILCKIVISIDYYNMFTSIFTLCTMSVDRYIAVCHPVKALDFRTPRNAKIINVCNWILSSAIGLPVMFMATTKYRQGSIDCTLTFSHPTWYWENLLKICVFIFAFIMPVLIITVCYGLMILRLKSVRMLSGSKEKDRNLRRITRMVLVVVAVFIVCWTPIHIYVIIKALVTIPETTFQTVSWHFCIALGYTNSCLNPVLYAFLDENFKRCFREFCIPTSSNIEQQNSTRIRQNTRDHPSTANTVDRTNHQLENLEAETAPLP
The target in a further experiment is T4, Thromboxane A2 receptor (Homo sapiens, UniProt P21731).
T4 sequence (P21731 whole entry): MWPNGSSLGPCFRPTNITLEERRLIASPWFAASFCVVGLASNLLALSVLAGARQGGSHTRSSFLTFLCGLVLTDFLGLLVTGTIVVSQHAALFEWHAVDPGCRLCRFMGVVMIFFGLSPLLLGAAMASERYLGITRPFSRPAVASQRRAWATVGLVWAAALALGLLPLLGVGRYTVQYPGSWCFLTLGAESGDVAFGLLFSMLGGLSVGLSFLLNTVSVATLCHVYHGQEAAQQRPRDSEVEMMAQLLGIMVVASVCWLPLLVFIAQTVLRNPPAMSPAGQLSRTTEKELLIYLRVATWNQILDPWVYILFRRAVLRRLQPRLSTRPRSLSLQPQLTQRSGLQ

Experiment [6] has as its target T5, 5-hydroxytryptamine receptor 1A (Homo sapiens, UniProt P08908).
T5 sequence (P08908 whole entry): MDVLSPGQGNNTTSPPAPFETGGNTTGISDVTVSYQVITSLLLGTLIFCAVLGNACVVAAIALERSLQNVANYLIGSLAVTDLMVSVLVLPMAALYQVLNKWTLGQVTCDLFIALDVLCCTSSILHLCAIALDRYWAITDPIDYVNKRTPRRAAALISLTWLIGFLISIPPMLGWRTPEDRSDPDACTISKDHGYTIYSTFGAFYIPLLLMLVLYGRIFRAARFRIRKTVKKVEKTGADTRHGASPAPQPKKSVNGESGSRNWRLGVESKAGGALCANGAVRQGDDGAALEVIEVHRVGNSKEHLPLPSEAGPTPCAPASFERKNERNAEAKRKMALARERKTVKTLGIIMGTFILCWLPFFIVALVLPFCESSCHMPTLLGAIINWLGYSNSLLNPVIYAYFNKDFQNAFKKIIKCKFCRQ
The class given is functional, cell-based.

The target in a further experiment is Vasopressin V1a receptor (Homo sapiens, UniProt P37288).
Vasopressin V1a receptor, sequence (P37288 whole entry): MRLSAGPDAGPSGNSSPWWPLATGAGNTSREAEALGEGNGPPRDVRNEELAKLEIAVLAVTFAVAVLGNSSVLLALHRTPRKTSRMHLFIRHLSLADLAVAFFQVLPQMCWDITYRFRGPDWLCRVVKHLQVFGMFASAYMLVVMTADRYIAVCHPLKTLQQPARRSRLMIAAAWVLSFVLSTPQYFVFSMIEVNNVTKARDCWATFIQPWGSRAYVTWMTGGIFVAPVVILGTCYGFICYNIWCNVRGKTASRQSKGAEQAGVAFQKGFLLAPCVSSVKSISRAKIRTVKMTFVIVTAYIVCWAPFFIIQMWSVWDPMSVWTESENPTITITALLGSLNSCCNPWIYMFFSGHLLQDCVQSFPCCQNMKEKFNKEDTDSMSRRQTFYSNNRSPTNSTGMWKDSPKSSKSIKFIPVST
Also: assay procedure not described here.

Muscarinic acetylcholine receptor M3, sequence (P20309 whole entry): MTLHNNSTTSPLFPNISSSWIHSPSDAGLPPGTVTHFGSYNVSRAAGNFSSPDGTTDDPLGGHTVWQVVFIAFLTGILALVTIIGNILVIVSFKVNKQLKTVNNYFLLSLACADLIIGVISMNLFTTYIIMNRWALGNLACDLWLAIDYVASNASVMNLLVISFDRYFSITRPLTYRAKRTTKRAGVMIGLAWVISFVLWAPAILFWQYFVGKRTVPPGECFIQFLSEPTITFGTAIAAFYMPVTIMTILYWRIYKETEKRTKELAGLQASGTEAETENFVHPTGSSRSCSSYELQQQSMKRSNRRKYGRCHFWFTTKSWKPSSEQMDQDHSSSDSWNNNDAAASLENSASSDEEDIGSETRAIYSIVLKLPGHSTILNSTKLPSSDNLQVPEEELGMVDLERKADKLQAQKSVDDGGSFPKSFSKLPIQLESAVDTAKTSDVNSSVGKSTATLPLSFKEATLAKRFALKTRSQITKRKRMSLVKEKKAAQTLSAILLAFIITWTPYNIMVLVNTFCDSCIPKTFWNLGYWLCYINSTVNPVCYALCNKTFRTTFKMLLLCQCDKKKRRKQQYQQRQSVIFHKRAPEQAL
Neuronal acetylcholine receptor subunit alpha-4, sequence (P43681 whole entry): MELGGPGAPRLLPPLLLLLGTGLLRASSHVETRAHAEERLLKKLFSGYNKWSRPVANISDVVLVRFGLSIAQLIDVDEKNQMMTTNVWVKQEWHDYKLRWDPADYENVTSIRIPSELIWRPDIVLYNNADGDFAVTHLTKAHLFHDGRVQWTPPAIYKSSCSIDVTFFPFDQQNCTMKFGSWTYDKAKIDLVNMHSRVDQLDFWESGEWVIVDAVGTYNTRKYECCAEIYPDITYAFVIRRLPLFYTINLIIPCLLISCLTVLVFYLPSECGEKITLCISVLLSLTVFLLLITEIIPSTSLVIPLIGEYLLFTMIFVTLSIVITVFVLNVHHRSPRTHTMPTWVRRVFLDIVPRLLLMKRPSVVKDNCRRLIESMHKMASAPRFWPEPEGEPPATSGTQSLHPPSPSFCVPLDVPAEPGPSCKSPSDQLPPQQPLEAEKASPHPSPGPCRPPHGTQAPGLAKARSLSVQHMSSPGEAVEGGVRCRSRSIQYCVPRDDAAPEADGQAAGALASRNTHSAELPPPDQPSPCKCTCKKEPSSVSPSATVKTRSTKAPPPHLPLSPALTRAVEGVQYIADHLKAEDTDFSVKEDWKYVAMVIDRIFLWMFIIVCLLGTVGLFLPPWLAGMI

Turning to TOCOFERSOLAN, the AC50 (in [1]; in experiment [2]; in experiment [3]; in experiment [4]; in experiment [5]; on Mu-type opioid receptor) was over 30 µM in each case. For the same molecule, the AC50 (at Thromboxane A2 receptor; in experiment [6]; on Vasopressin V1a receptor) was over 30 µM throughout.
On to `O=C1CN=C(c2ccccc2)c2cc(Cl)ccc2N1CC(F)(F)F` [HALAZEPAM], for which the AC50 (as a rule, the concentration giving half of the maximal activity seen) in experiment [1] was over 30 µM; in experiment [2] it was over 30 µM; in [3] it was over 30 µM; in [4] it was over 30 µM; in [5] it was over 30 µM; on Mu-type opioid receptor it was 1.2 µM. For the same molecule, the AC50 (in experiment [6]; on Vasopressin V1a receptor) was over 30 µM in each case.
As for `COc1ccc(C(=O)NCc2ccc(OCCN(C)C)cc2)cc1OC` [ITOPRIDE], the half-maximal activity concentration (AC50) (in experiment [1]; in experiment [2]; in experiment [3]; in [4]; in experiment [5]; at Mu-type opioid receptor) was over 30 µM each time. For the same molecule, the AC50 at Thromboxane A2 receptor and on Vasopressin V1a receptor was over 30 µM each time.
For `Nc1ncnc2c1ncn2[C@@H]1O[C@H](COP(=O)(O)O)[C@@H](O)[C@H]1O` [ADENOSINE PHOSPHATE], the AC50 (in experiment [1]; in experiment [2]; in experiment [3]; in experiment [4]; in experiment [5]; on Mu-type opioid receptor) was over 30 µM throughout. The AC50 on Thromboxane A2 receptor and at Vasopressin V1a receptor was over 30 µM throughout.
Regarding `CCCCCOC(=O)Nc1nc(=O)n([C@@H]2O[C@H](C)[C@@H](O)[C@H]2O)cc1F` [CAPECITABINE], the AC50 (in experiment [1]; in [2]; in experiment [3]; in experiment [4]; in experiment [5]; at Mu-type opioid receptor) was over 30 µM throughout. For the same molecule, the AC50 (in experiment [6]; on Vasopressin V1a receptor) was over 30 µM each time.
`O=C(OCCN1CCOCC1)c1cccnc1Nc1cccc(C(F)(F)F)c1` [MORNIFLUMATE]: the AC50 (in [1]; in experiment [2]; in experiment [3]; in experiment [4]; in experiment [5]; at Mu-type opioid receptor) was over 30 µM throughout. The AC50 on Thromboxane A2 receptor and on Vasopressin V1a receptor was over 30 µM in each case.
On to `CC/C=C\C/C=C\C/C=C\CCCCCCCC(=O)O` [LINOLENIC ACID], for which the AC50 (in experiment [1]; in [2]; in experiment [3]; in experiment [4]; in experiment [5]; on Mu-type opioid receptor) was over 30 µM throughout. Besides, the AC50 at Thromboxane A2 receptor and on Vasopressin V1a receptor was over 30 µM in each case.
As to `Cc1nc2ccc(CN(C)c3ccc(C(=O)N[C@@H](CCC(=O)O)C(=O)O)s3)cc2c(=O)[nH]1` [RALTITREXED], the AC50 is over 30 µM in [1]; over 30 µM in experiment [2]; over 10 µM in experiment [3]; over 30 µM in experiment [4]; over 30 µM in experiment [5]; over 30 µM at Mu-type opioid receptor. Besides, the AC50 on Thromboxane A2 receptor and at Vasopressin V1a receptor was over 30 µM throughout.
For the molecule `C#CCN[C@@H]1CCc2ccccc21` [RASAGILINE], the AC50 (in [1]; in experiment [2]; in experiment [3]; in experiment [4]; on Mu-type opioid receptor; on Thromboxane A2 receptor) was over 30 µM throughout. Moreover, the AC50 (in experiment [6]; on Vasopressin V1a receptor) was over 30 µM in each case.
On to `CCCC(CCC)C(=O)O[C@H]1C[C@H]2CC[C@@H](C1)[N+]2(C)C` [ANISOTROPINE], for which the AC50 was 26 µM in [1]; 0.036 µM in experiment [2]; over 30 µM in [3]; 28 µM in [4]; over 30 µM in experiment [5]; over 30 µM on Mu-type opioid receptor. For the same molecule, the AC50 at Thromboxane A2 receptor and on Vasopressin V1a receptor was over 30 µM each time.
`CCOC(=O)[C@H](CCc1ccccc1)N[C@H]1CCCN2CCC[C@@H](C(=O)O)N2C1=O` [CILAZAPRIL]: the AC50 (in experiment [1]; in experiment [2]; in experiment [3]; in experiment [4]; in experiment [5]; at Mu-type opioid receptor) was over 30 µM throughout. Also, the AC50 at Thromboxane A2 receptor and at Vasopressin V1a receptor was over 30 µM throughout.
Regarding `CCCCCCC(C)(C)c1cc(O)c2c(c1)OC(C)(C)C1CCC(=O)CC21` (stereo unspecified) [NABILONE], the AC50 (in [1]; in experiment [2]; in [3]; in [4]; in experiment [5]; on Mu-type opioid receptor) was over 30 µM each time. In addition, the AC50 (in [6]; at Vasopressin V1a receptor) was over 30 µM each time.
In the case of `C[C@H]1C[C@@H]2[C@H]([C@@H](O)C[C@@]3(C)[C@H]2CC[C@]3(O)C(=O)COC(=O)CCC(=O)O)[C@@]2(C)C=CC(=O)C=C12` [METHYLPREDNISOLONE HEMISUCCINATE], the AC50 (in [1]; in experiment [2]; in experiment [3]; in experiment [4]; in [5]; at Mu-type opioid receptor) was over 30 µM each time. In addition, the AC50 (in experiment [6]; on Vasopressin V1a receptor) was over 30 µM in each case.
With `CCOc1cc(N)c([N+](=O)[O-])cc1C(=O)NC1CCN(CC2CC=CCC2)CC1` (stereo unspecified) [CINITAPRIDE], the AC50 in [1] is 15 µM; in [2], 13 µM; in experiment [3], over 30 µM; in experiment [4], 22 µM; in experiment [5] it was over 30 µM; on Mu-type opioid receptor it was over 30 µM. Besides, the AC50 on Thromboxane A2 receptor and at Vasopressin V1a receptor was over 30 µM each time.
With `COC(=O)[C@H]1[C@@H](OC(=O)c2ccccc2)C[C@@H]2CC[C@H]1N2C` [COCAINE], the half-maximal activity concentration (AC50) in experiment [1] is over 30 µM; in experiment [2], over 30 µM; in experiment [3], over 30 µM; in experiment [4], over 30 µM; in [5] it was 19 µM; on Mu-type opioid receptor, over 30 µM. In addition, the AC50 on Thromboxane A2 receptor and at Vasopressin V1a receptor was over 30 µM each time.

Source of the values: ChEMBL document CHEMBL5291721, “A preclinical secondary pharmacology resource illuminates target-adverse drug reaction associations of marketed drugs” (Nat Commun, 2023).
